Test results taken from patent US12194140B2, “Compositions for topical treatment of microbial infections” (Hennepin Life Sciences, priority 2012, dated 2025).
Entries after “also recorded” stand apart in the source; their conditions may differ. One block for each compound: values may come before it.

Experiments:
[1] = Solubility of Tenofovir in non-aqueous gels; type: physicochemical; conditions: 10 mg/mL
Protocol: Non-aqueous gels comprised of propylene glycol (73.55% w/w), polyethylene glycol 400 (25% w/w), and hydroxypropyl cellulose (1.25% w/w) at a range of pH from 4.0 to 4.5 were prepared. The anti-HIV drug Tenofovir was added to the gels at a concentration of 10 mg/mL to determine if the drug was soluble in the compositions.

[2] = test system: S. pyogenes (strain 594); assay: Antibacterial effects of various forms of GML; type: cell-based
Protocol: In order to test for potential differences between the optical isomers, the R form of GML, which is commercially available, was compared to a GML racemic mixture of the R and S forms. […] Antibacterial effects of these forms of GML was assessed on S. pyogenes (strain 594).

[3] = test system: E. coli (Watson strain); assay: GML and EDTA on the growth of E. coli; type: cell-based; conditions: 24 hours; EDTA 0.05 M to 0.00005 M; GML 100 μg/mL
Protocol: E. coli (Watson strain) was adjusted to I.2×10^7/mL in Todd Hewitt media. […] Cultures were incubated with shaking (200 RPM) for 24 hours, at which time samples were removed for plate counting. To further assess the combined effects of GML and EDTA, the experiment was carried out as above, and the relative effects on the growth of E. coli of EDTA alone or the combination of GML and EDTA were assessed in direct comparison to GML alone.

solubility in non-aqueous gel ([1]; pH 4.0-4.3): not soluble | solubility in non-aqueous gel ([1]; pH 4.4 or 4.5): soluble
Structure (SMILES): C[C@H](Cn1cnc2c(N)ncnc21)OCP(=O)(O)O [Tenofovir]

Structure (SMILES): CCCCCCCCCCCC(=O)OC(CO)CO [Glycerol monolaurate (GML) 2-position]
activity relative to the mixture of 2-position and ⅓-position GML forms [2]: 2 fold

Structure (SMILES): CCCCCCCCCCCC(=O)OCC(O)CO (stereo not drawn) [mixture of R and S form GML]
antibacterial activity, R form versus mixture of R and S forms [2]: same antibacterial activity

Structure (SMILES): CCCCCCCCCCCC(=O)OC[C@H](O)CO [R form GML]
antibacterial activity, R form versus mixture of R and S forms [2]: same antibacterial activity

Structure (SMILES): O=C(O)CN(CCN(CC(=O)O)CC(=O)O)CC(=O)O [EDTA, ethylenediaminetetraacetic acid]
anti-bacterial activity on growth of E. coli (CFU/mL) [3]: inhibited the growth of E. coli somewhat, in a dose-dependent manner; also recorded: inhibited the growth of E. coli to some extent at higher concentrations
